Experimental data as given in US6461997B1, “Triazole sulfones having herbicidal activity” (Monsanto Technology LLC, priority 1999, dated 2002).

Tests used:
barley (HORVX) = assay: Selectivity test, PPI, cool season crop; type: in vivo, Hordeunm vulgare; conditions: PPI application
Description: (§1) A pre-prepared topsoil mixture (described above) was placed in a pot and compacted to a depth of 1.0 to 1.25 cm from the top of the pot. Seeds of each of several monocotyledonous and dicotyledonous annual plant species were placed on top of the soil. A sufficient quantity of soil to cover the seeds and level fill the pot was weighed into an open container. A known amount of the test compound was dissolved or suspended in an organic solvent and applied by spraying to this cover soil. The cover soil was thoroughly mixed to distribute the test compound throughout the cover soil, and was then applied as a cover layer over the seeds. Untreated soil was used as a cover layer for control pots. After treatment the plants were placed in a greenhouse where they received 0.64 cm of overhead irrigation. All subsequent watering consisted of a light overhead mist and/or subirrigation as needed for germination and growth. Tables 9 and 10 below relate to warm season plant species which were placed after pre-emergence treatment in a greenhouse with a 30/21° C. day/night temperature regime. Tables 11 and 12 below relates to cool season plant species placed after pre-emergence treatment in a greenhouse or growth chamber with an 18/13° C. day/night temperature regime. Only the compounds of Examples 1, 6, 8, 11, 13 and 15-20 were included in PPI tests.
(§2) Approximately 14 days after planting and treating, the plants were observed and herbicidal efficacy recorded as percent inhibition by comparison with untreated plants.
(§3) Additional pre-emergence and PPI tests were conducted by the procedures described above, on warm and cool season weed species in the presence of crop species, to assess herbicidal selectivity. Crop species included in warm season tests were corn (Zea mays, ZEAMX), rice (Oryza sativa, ORYSA) and soybean (Glycine max, GLYMX). Crop species included in cool season tests were wheat (Triticum aestivum, TRZAW), barley (Hordeunm vulgare, HORVX) and oilseed rape (Brassica napus, BRSNS).
(§4) Tables 15 and 16 relate to pre-emergence and PPI tests respectively on warm season species. Table 17 relates to pre-emergence tests on cool season species.

[1] = tested on: LAMPU (purple deadnettle); assay: Pre-plant incorporated (PPI) herbicidal activity, cool season; type: in vivo, Lamium purpureum; conditions: weed, PPI application
Description: (§5) In another set of tests, the pre-plant incorporated (PPI) activity of compounds of this invention was evaluated on the same species as for the pre-emergence tests described above. In the PPI tests the following procedure, designed to simulate PPI application, was used.
as §1, §2

STEME (common chickweed) = assay: as above; type: in vivo, Stellaria media; conditions: weed, PPI application
Description: as §5, §1, §2

wheat (TRZAW) = assay: Selectivity test, PPI, cool season crop; type: in vivo, Triticum aestivum; conditions: PPI application
Description: as §1, §2, §3, §4

SETVI (green foxtail) = assay: Pre-plant incorporated (PPI) herbicidal activity, cool season; type: in vivo, Setaria viridis; conditions: weed, PPI application
Description: as §5, §1, §2

SINAR (wild mustard) = assay: as above; type: in vivo, Sinapis arvensis; conditions: weed, PPI application
Description: as §5, §1, §2

SORVU (shattercane) = assay: Pre-plant incorporated (PPI) herbicidal activity, warm season; type: in vivo, Sorghum vulgare; conditions: PPI application
Description: as §5, §1, §2

[2] = tested on: BRAPP (broadleaf signalgrass); assay: as above; type: in vivo, Brachiaria platyphylla; conditions: PPI application
Description: as §5, §1, §2

[3] = tested on: AGRRE (quackgrass (seedling)); assay: Pre-plant incorporated (PPI) herbicidal activity, cool season; type: in vivo, Elymus repens; conditions: weed, PPI application
Description: as §5, §1, §2

[4] = tested on: GALAP (catchweed bedstraw); assay: as above; type: in vivo, Galium aparine; conditions: weed, PPI application
Description: as §5, §1, §2

SASKR (russian thistle) = assay: as above; type: in vivo, Salsola kali; conditions: weed, PPI application
Description: as §5, §1, §2

corn (ZEAMX) = assay: Selectivity test, PPI, warm season crop; type: in vivo, Zea mays; conditions: PPI application
Description: as §1, §2, §3, §4

SETFA (giant foxtail) = assay: Pre-plant incorporated (PPI) herbicidal activity, warm season; type: in vivo, Setaria faberi; conditions: PPI application
Description: as §5, §1, §2

Question: Which “Percent inhibition HORVX” value (barley (HORVX); 30 g/ha) does the source give for `CCN(CC)C(=O)n1cnc(S(=O)(=O)C(F)(F)F)n1` [Example 2] here?
Answer: 0%

Question: What about the “Percent inhibition HORVX” value (barley (HORVX); 100 g/ha) of the same compound?
Answer: 30%

Question: What about the “Percent inhibition HORVX” value (barley (HORVX); 300 g/ha) of the same compound?
Answer: 20%

Question: What about the “Percent inhibition HORVX” value (barley (HORVX); 900 g/ha) of the same compound?
Answer: 100%

Question: And the “Percent inhibition LAMPU” value ([1]; 30 g/ha)?
Answer: 30%

Question: And the “Percent inhibition LAMPU” value ([1]; 100 g/ha)?
Answer: 70%

Question: What about the “Percent inhibition LAMPU” value ([1]; 300 g/ha) of the same compound?
Answer: 95%

Question: What about the “Percent inhibition LAMPU” value ([1]; 900 g/ha) of the same compound?
Answer: 100%

Question: What about the “Percent inhibition STEME” value (STEME (common chickweed); 30 g/ha) of the same compound?
Answer: 60%

Question: And the “Percent inhibition STEME” value (STEME (common chickweed); 100 g/ha)?
Answer: 90%

Question: And the “Percent inhibition STEME” value (STEME (common chickweed); 300 g/ha)?
Answer: 80%

Question: What about the “Percent inhibition STEME” value (STEME (common chickweed); 900 g/ha) of the same compound?
Answer: 95%

Question: And the “Percent inhibition TRZAW” value (wheat (TRZAW); 30 g/ha)?
Answer: 0%

Question: And the “Percent inhibition TRZAW” value (wheat (TRZAW); 100 g/ha)?
Answer: 0%

Question: And the “Percent inhibition TRZAW” value (wheat (TRZAW); 300 g/ha)?
Answer: 30%

Question: And the “Percent inhibition TRZAW” value (wheat (TRZAW); 900 g/ha)?
Answer: 30%

Question: And the “Percent inhibition SETVI” value (SETVI (green foxtail); 30 g/ha)?
Answer: 80%

Question: And the “Percent inhibition SETVI” value (SETVI (green foxtail); 100 g/ha)?
Answer: 100%

Question: What about the “Percent inhibition SETVI” value (SETVI (green foxtail); 300 g/ha) of the same compound?
Answer: 100%

Question: And the “Percent inhibition SETVI” value (SETVI (green foxtail); 900 g/ha)?
Answer: 100%

Question: What about the “Percent inhibition SINAR” value (SINAR (wild mustard); 30 g/ha) of the same compound?
Answer: 10%

Question: What about the “Percent inhibition SINAR” value (SINAR (wild mustard); 100 g/ha) of the same compound?
Answer: 100%

Question: What about the “Percent inhibition SINAR” value (SINAR (wild mustard); 300 g/ha) of the same compound?
Answer: 100%

Question: What about the “Percent inhibition SINAR” value (SINAR (wild mustard); 900 g/ha) of the same compound?
Answer: 100%

Question: What about the “Percent inhibition SORVU” value (SORVU (shattercane); 30 g/ha) of the same compound?
Answer: 50%

Question: And the “Percent inhibition SORVU” value (SORVU (shattercane); 100 g/ha)?
Answer: 100%

Question: And the “Percent inhibition SORVU” value (SORVU (shattercane); 300 g/ha)?
Answer: 95%

Question: And the “Percent inhibition SORVU” value (SORVU (shattercane); 900 g/ha)?
Answer: 100%

Question: And the “Percent inhibition BRAPP” value ([2]; 30 g/ha)?
Answer: 80%

Question: What about the “Percent inhibition BRAPP” value ([2]; 100 g/ha) of the same compound?
Answer: 50%

Question: What about the “Percent inhibition BRAPP” value ([2]; 300 g/ha) of the same compound?
Answer: 90%

Question: And the “Percent inhibition BRAPP” value ([2]; 900 g/ha)?
Answer: 70%

Question: What about the “Percent inhibition AGRRE” value ([3]; 30 g/ha) of the same compound?
Answer: 0%

Question: What about the “Percent inhibition AGRRE” value ([3]; 100 g/ha) of the same compound?
Answer: 0%

Question: And the “Percent inhibition AGRRE” value ([3]; 300 g/ha)?
Answer: 30%

Question: What about the “Percent inhibition AGRRE” value ([3]; 900 g/ha) of the same compound?
Answer: 60%

Question: And the “Percent inhibition GALAP” value ([4]; 30 g/ha)?
Answer: 60%

Question: And the “Percent inhibition GALAP” value ([4]; 100 g/ha)?
Answer: 100%

Question: And the “Percent inhibition GALAP” value ([4]; 300 g/ha)?
Answer: 100%

Question: And the “Percent inhibition GALAP” value ([4]; 900 g/ha)?
Answer: 100%

Question: And the “Percent inhibition SASKR” value (SASKR (russian thistle); 30 g/ha)?
Answer: 50%

Question: And the “Percent inhibition SASKR” value (SASKR (russian thistle); 100 g/ha)?
Answer: 80%

Question: And the “Percent inhibition SASKR” value (SASKR (russian thistle); 300 g/ha)?
Answer: 85%

Question: And the “Percent inhibition SASKR” value (SASKR (russian thistle); 900 g/ha)?
Answer: 100%

Question: And the “Percent inhibition ZEAMX” value (corn (ZEAMX); 30 g/ha)?
Answer: 5%

Question: What about the “Percent inhibition ZEAMX” value (corn (ZEAMX); 100 g/ha) of the same compound?
Answer: 10%

Question: What about the “Percent inhibition ZEAMX” value (corn (ZEAMX); 300 g/ha) of the same compound?
Answer: 50%

Question: And the “Percent inhibition ZEAMX” value (corn (ZEAMX); 900 g/ha)?
Answer: 80%

Question: What about the “Percent inhibition SETFA” value (SETFA (giant foxtail); 30 g/ha) of the same compound?
Answer: 20%

Question: What about the “Percent inhibition SETFA” value (SETFA (giant foxtail); 100 g/ha) of the same compound?
Answer: 100%

Question: What about the “Percent inhibition SETFA” value (SETFA (giant foxtail); 300 g/ha) of the same compound?
Answer: 100%

Question: What about the “Percent inhibition SETFA” value (SETFA (giant foxtail); 900 g/ha) of the same compound?
Answer: 90%
